Values after ≈ are worked out from the molar mass of the structure shown. “Also recorded” adds a separate entry of the source. Where two headings read alike, the source gives them in different places. Marks after values point to notes of the source that are not given here.
Legend:
Mtb H37Rv strain = experiment: In vivo model of TB infection in mice; conditions: for lungs mean log10 CFU/mL ± SD / spleen weight mean g ± SD: gavage, single daily dose, 15 administrations; for toxicity in mice (in words): infected mice, up to 21 days
[1] = system: Mycobacterium tuberculosis H37Rv Strain; experiment: MIC by resazurin reduction microplate assay (REMA), H37Rv; format: cell-based; conditions: Mtb H37Rv, REMA
[2] = Aqueous solubility at different pHs; format: physicochemical; conditions: thermodynamic from solid, 25 °C for 4 h
Procedure: The compound was weighed (1 mg) and solubilized in phosphate-buffered saline (PBS, pH 7.4), HCl 0.1 M (pH 1.2), and NH4HCO3 0.1 M (pH 9.2) to a final concentration of 1 mg/mL. The solutions were kept under stirring (250 rpm) for 4h at 37 °C. The solutions were filtered ([…] PDVA filter) and analyzed by HPLC. DMSO solution 1 mg/mL was used as the control for 100% soluble.

[3] = Chemical stability at pH 1.2, 7.4 and 9.1; format: physicochemical; conditions: 37 °C for 24 h; for chemical stability pH 1.2: 0.1 M HCl; for chemical stability pH 9.1: 0.1 M NH4HCO3; for chemical stability pH 7.4: PBS
Procedure: The compounds to be tested were prepared in a 100 μM solution and incubated at 37 °C for 24 h in three solutions representing the physiologically relevant pHs to drug administration: pH 1.2 (stomach), pH 7.4 (plasma), and pH 9.2 (intestinal tissue). The compounds were quantified by HPLC-MS/MS. The chemical stability experiments were carried out in triplicates to ensure reproducibility. The results were presented as percentage, comparing the signal at time zero of the assay, considering this measure 100%, with measurements after the incubation time. Alprenolol was used as the analytical control (data not shown). The results were presented as the percentage, comparing the signal at time zero of the assay (100%) with the signal produced by concentrations after the incubation period.

[4] = In vivo absorption assay: plasma concentration after gavage; conditions: mice; for plasma concentrations (range): 15 and 30 min
[5] = Metabolic stability in rat liver microsomes; format: in vitro ADME; conditions: for CLint scaled: pH 7.4, read-out: metabolic stability Clint (intrinsic clearance); for half-life: pH 7.4, read-out: metabolic stability t1/2 (half-life)
Procedure: The compound was incubated at 37 °C in the concentration of 20 μM with rat liver microsomal fractions in PBS solution at pH 7.4 solution. As previously described,[31] rat liver microsomal fractions were seeded by centrifugation at 9.000 × g. To the supernatant containing the postmithocondrial with cytosolic and membrane-bound enzymes, 4 μM 5-FI was added and incubated at 37 °C. The interaction between the compound in the incubation mixture and the enzyme containing NADPH at 1 mg/mL concentration was measured by HPLC-MS/MS technique to determine the in vitro compound consumption by the microsomal fractions at 0, 5, 15, and 30 min reaction (incubation) time. The intrinsic compound clearance was taken as the half-life, and the disappearance was compared with the positive control, verapamil(2 μM).

[6] = Chemical stability in H2O at 37 °C, open and closed system (volatility assay)
[7] = system: tryptophan transport system of Mtb H37Rv strain; conditions: tryptophan transport system of Mtb H37Rv strain ref 27; read-out: Michaelis–Menten constant (KM); cited from earlier work
[8] = Cellular viability (MTT and neutral red uptake), HepG2; format: cell-based; conditions: human, HepG2 cells; 72 h of exposure; MTT and neutral red assays
Procedure: (§1) To assess the selectivity and potential toxicity of 5-FI, the effects on the viability of both HepG2 and Vero mammalian cell lines were evaluated. Cell viability was measured after 72 h of incubation with concentrations of 2, 5, and 20 μM of the compound. […] Two methods were used to assess the cell integrity: the MTT assay, which evaluates mitochondrial viability, and the neutral red assay, which assesses lysosomal functionality.
(§2) To determine the cellular viability, the cells were incubated with the 5-fluoro-1H-indole compound with 3-(4,5-dimethylthiazol-2-yl)-2,5-diphenyl-2H-tetrazolium bromide (MTT)[29] and neutral red uptake (NRU)[30] methods. […] The formed formazan crystals were dissolved with 100 μL of DMSO, and the absorbance of this solution was measured at 595 nm using an EZ Read 400 microplate reader (Biochrom, Holliston, MA, USA). The absorbance of the formazan crystals, diluted with DMSO, was directly proportional to the number of live cells with active mitochondria, corresponding to their viability. The mean value of absorbance of control wells was taken as 100% viability, and the values of treated cells were calculated as the percentage of vehicle control containing 0.5% DMSO. […]

HepG2 cells = experiment: as above; format: cell-based; conditions: 2, 5 and 20 μM, 72 h; MTT and neutral red; listed as 5-FI
Procedure: as §1, §2

[9] = Parallel artificial membrane permeability assay (PAMPA); format: in vitro ADME; conditions: pH 7.4, 5 h
Procedure: 5-FI was quantified by HPLC-MS after a period of incubation and separated into two fractions by a permeable lipidic membrane. The result is expressed in velocity units of permeation (cm/s). The lipidic membrane is previously prepared with specific activation solutions that create a hydrophobic surface, simulating the intestinal epithelial tissue. To the donor aqueous phase (pH 7.4), 100 μM compound is added. To the previously prepared membrane is added the receptor aqueous phase (pH 7.4), and the mixture is incubated for 5h at room temperature with both receptor and donor aqueous phases in contact, separated just by the membrane. The compound transported by passive diffusion is measured by taking an aliquot of receptor solution and analyzing it by HPLC-MS/MS.

[10] = Cellular viability (MTT and neutral red uptake), Vero; format: cell-based; conditions: African green monkey, Vero cells; 72 h of exposure; MTT and neutral red assays
Procedure: as §1, §2

Vero cells = experiment: as above; format: cell-based; conditions: 2, 5 and 20 μM, 72 h; MTT and neutral red; listed as 5-FI
Procedure: as §1, §2

[11] = SOS Chromotest ref 25; cited from earlier work
[12] = most frequent value of three independent assays
[13] = pH 1.2, simulated gastric fluid, 0.1 M HCl, read-out: aqueous solubility pH 1.2
[14] = pH 9.1, aqueous buffer, 0.1 M NH4HCO3, read-out: aqueous solubility pH 9.1
[15] = phosphate-buffered saline, pH 7.4, aqueous buffer, PBS, read-out: aqueous solubility pH 7.4

Cl.Fc1ccc2[nH]ccc2c1 [Compound 11, 5-fluoroindole hydrochloride]
lungs mean log10 CFU/mL ± SD (Mtb H37Rv strain; 10 μmol/kg): 5.80 ± 0.20 log10 CFU/mL | spleen weight mean g ± SD (Mtb H37Rv strain; 10 μmol/kg): 0.58 ± 0.19 g | lungs mean log10 CFU/mL ± SD (Mtb H37Rv strain; 30 μmol/kg): 6.21 ± 0.32 log10 CFU/mL | spleen weight mean g ± SD (Mtb H37Rv strain; 30 μmol/kg): 0.55 ± 0.23 g | lungs mean log10 CFU/mL ± SD (Mtb H37Rv strain; 100 μmol/kg): 5.86 ± 0.67 log10 CFU/mL | spleen weight mean g ± SD (Mtb H37Rv strain; 100 μmol/kg): 0.62 ± 0.35 g | number of CFUs in the lungs compared to the EC (early control) group (in words) (Mtb H37Rv strain; 200 μmol/kg): significantly reduced | reduction of mycobacterial load in the lungs compared to vehicle group (in words) (Mtb H37Rv strain; 200 μmol/kg): significantly reduce | lungs mean log10 CFU/mL ± SD (Mtb H37Rv strain; 200 μmol/kg): 3.68 ± 0.45***^, ### log10 CFU/mL | spleen weight mean g ± SD (Mtb H37Rv strain; 200 μmol/kg): 0.28 ± 0.06 g | reduction of CFUs in the lungs compared to vehicle group (in words) (Mtb H37Rv strain; 10, 30 and 100 μmol/kg): not able to reduce | toxicity in mice (in words) (Mtb H37Rv strain; 200 μmol/kg, listed as 5-FI.HCL): no evidence of a toxic effect | toxicity in mice (in words) (Mtb H37Rv strain; 200 μmol/kg, listed as 5-FI.HCl): no toxicity | MIC [1, 12]: 29.1 µM | solubility at 4 h [2, 13]: 2.3 µM | solubility at 4 h [2, 14]: 1110 µM | solubility at 4 h [2, 15]: 600 µM | chemical stability pH 1.2 [3]: 100% | chemical stability pH 9.1 [3]: 90.5% | chemical stability pH 7.4 [3]: 80.3% | chemical stability at all pH values tested ([3]; pH 1.2, 7.4, 9.1): > 80% | plasma concentration, mean ± SD ([4]; gavage 400 mg/kg, 15 min): 32.6 ± 14.7 µM | plasma concentration, mean ± SD ([4]; gavage 400 mg/kg, 30 min): 82.3 ± 35.05 µM | plasma concentrations (range) ([4]; gavage 400 mg/kg, joint range over 5-FI and 5-FI.HCl, 400 mg/kg): 32.6 to 82.3 µM | CLint scaled ([5]; rat): 48 mL/min/kg | half-life ([5]; rat): 0.2 h | chemical stability, closed system ([6]; 0 h): 100 ± 0.0% | chemical stability, open system ([6]; 0 h): 100 ± 0.0% | chemical stability, closed system ([6]; 1 h): 95.3 ± 0.1% | chemical stability, open system ([6]; 1 h): 97.6 ± 0.0% | chemical stability, closed system ([6]; 2 h): 95.0 ± 0.2% | chemical stability, open system ([6]; 2 h): 98.0 ± 0.1% | chemical stability, closed system ([6]; 4 h): 104.6 ± 0.2% | chemical stability, open system ([6]; 4 h): 100.3 ± 0.5% | chemical stability, closed system ([6]; 6 h): 97.9 ± 0.1% | chemical stability, open system ([6]; 6 h): 103.9 ± 0.1% | chemical stability, closed system ([6]; 24 h): 110.8 ± 0.2% | chemical stability, open system ([6]; 24 h): 113.5 ± 0.1% | chemical stability, closed system ([6]; 48 h): 124.1 ± 0.1% | chemical stability, open system ([6]; 48 h): 114.3 ± 0.0%

N[C@@H](Cc1c[nH]c2ccccc12)C(=O)O [tryptophan, L-tryptophan]
Km [7]: 1250 µM

Fc1ccc2[nH]ccc2c1 [Compound 1, 5-Fluoroindole]
MIC [1, 12]: 4.7 µM | MIC ([1]; Mycobacterium tuberculosis, H37RV): 0.63 µg/mL | solubility at 4 h [2, 13]: > 550 µM | solubility at 4 h [2, 14]: 2.2 µM (≈ 0.297 µg/mL) | solubility at 4 h [2, 15]: 3.5 µM (≈ 0.473 µg/mL) | chemical stability pH 1.2 [3]: 37.2% | chemical stability pH 9.1 ([3]; listed as 5-FI): 99.2% | chemical stability pH 7.4 ([3]; listed as 5-FI): 58.5% | concentration at 15 min ([4]; female, CF-1, mouse, in vivo, 400 mg/kg, plasma concentration, mean ± SD, gavage 400 mg/kg, 15 min): 45.2 ± 14.8 µM | concentration at 30 min ([4]; female, CF-1, mouse, in vivo, 400 mg/kg, plasma concentration, mean ± SD, gavage 400 mg/kg, 30 min): 79.4 ± 19.4 µM | concentration at 30 min ([4]; female, CF-1, mouse, in vivo, po, 400 mg/kg, plasma concentrations (range), oral 400 mg/kg, 30 min, joint range over 5-FI and 5-FI.HCl): 79 to 82 µM | plasma concentrations (range) ([4]; gavage 400 mg/kg, joint range over 5-FI and 5-FI.HCl, listed as 5-FI, 400 mg/kg): 32.6 to 82.3 µM | CLint scaled [5]: 9 mL/min/kg | half-life [5]: 2.4 h | CC50 at 72 h [8]: > 20 µM | cell viability / cytotoxicity in HepG2 (in words) (HepG2 cells): not altered; also recorded: no cytotoxicity; also recorded: low cytotoxicity | Papp at 5 h, 100 μM [9]: 2.4 ×10⁻⁶ cm/s | CC50 at 72 h [10]: > 20 µM | cell viability / cytotoxicity in Vero (in words) (Vero cells): not altered; also recorded: no cytotoxicity; also recorded: low cytotoxicity | chemical stability, closed system ([6]; 0 h): 100 ± 0.0% | chemical stability, open system ([6]; 0 h): 100 ± 0.0% | chemical stability, closed system ([6]; 1 h): 97.5 ± 0.1% | chemical stability, open system ([6]; 1 h): 97.5 ± 0.2% | chemical stability, closed system ([6]; 2 h): 95.2 ± 0.0% | chemical stability, open system ([6]; 2 h): 95.4 ± 0.2% | chemical stability, closed system ([6]; 4 h): 93.3 ± 0.1% | chemical stability, closed system ([6]; 6 h): 87.8 ± 0.0% | chemical stability, open system ([6]; 6 h): 88.9 ± 0.2% | chemical stability, closed system ([6]; 24 h): 86.1 ± 0.0% | chemical stability, open system ([6]; 24 h): 89.1 ± 0.2% | chemical stability, closed system ([6]; 48 h): 80.3 ± 0.1% | chemical stability, open system ([6]; 48 h): 85.5 ± 0.1% | genotoxicity [11]: does not exhibit genotoxicity

— article PMC11292626, “5-Fluoroindole Reduces the Bacterial Burden in a Murine Model of Mycobacterium tuberculosis Infection” (ACS Omega, 2024)
